Results on three molecules are retold here after patent publication US8618127B2, “Methods and compositions for alleviating stuttering” (Endo Pharmaceuticals Solutions Inc., priority 2000, dated 2013).

Structures are written as SMILES.

Data set [1] in a line: Stuttering of a patient treated with pagoclone in a double-blind placebo-controlled panic disorder clinical trial. It is filed as in vivo, human. As for the experimental part: A patient is enrolled in a clinical trial examining the efficacy and safety of pagoclone, a drug which works at the GABAA receptor, in the treatment of panic disorder, an anxiety disorder. […] The double-blind placebo-controlled trial conceals the drug type until the conclusion of the trial. During the trial the patient is taking 0.60 mg pagoclone/day (0.20 mg t.i.d.). The patient had never before experienced this sort of an effect on their stuttering and they had taken, in the past, other anti-anxiety medications for their psychiatric condition, none of which had such an effect on their stuttering. During the trial, both they and the clinician treating them in the clinical trial notice the reduction in their stuttering, which is documented at their week 2 visit. […] During the trial they also are taking ibuprofen and a prophylactic for urinary tract infections.

The conditions of data set [2]: Elliot et al. 1985; cited from earlier work.
For data set [3] the following is noted: eight-week course, randomized patients; cited from earlier work.

As for `CC(C)CCC(=O)CC1c2ccccc2C(=O)N1c1ccc2ccc(Cl)nc2n1` (single isomer, unassigned; (+)) [pagoclone, (+)2-(7-chloro-1,8-naphthyridine-2-yl)-3-(5-methyl-2-oxo-hexyl)-1-isoindolinone], in data set [1] (patient, fairly severe stuttering, 0.60 mg pagoclone/day (0.20 mg t.i.d.), documented at week 2 visit), the “effect on stuttering while taking the drug” value is “significant reduction in their fairly severe stuttering problem”. Moreover, the “effect on anxiety and psychiatric condition” value in data set [1] (same patient with panic disorder, 0.60 mg pagoclone/day) was “reduction in their anxiety and improvement in their psychiatric condition”. For the same molecule, the “stuttering after stopping the drug” value in data set [1] (same patient, after stopping pagoclone) is recorded as “returns to the pre-drug level within a day”.
Turning to `Cc1nnc2n1-c1ccc(Cl)cc1C(c1ccccc1)=NC2` [Alprazolam], in data set [2], the drug-induced stuttering result is listed as “can induce stuttering”.
For the molecule `O=C(CCCN1CCC(O)(c2ccc(Cl)cc2)CC1)c1ccc(F)cc1` [haloperidol], in data set [3], the “effect on stuttering, objective measures of speech” value was “significant improvement”.
